Values after ≈ are worked out from the molar mass of the structure shown. Values joined by “and” are separate entries in the source; they are usually repeats but may differ in a detail not shown here. Equal entries are not always repeated.
Assays:
hERG potassium channel = molecular target: T1, hERG potassium channel (Homo sapiens, UniProt Q12809); assay: hERG inhibition assay, QPatch HTX automated electrophysiology; type: cell-based; details: CHO cell line expressing hERG; whole-cell patch clamp, room temperature
T1 construct: Chinese Hamster Ovary cell line stably expressing the full-length hERG potassium channel; expressed in transfected cells
T1 sequence (Q12809 whole entry): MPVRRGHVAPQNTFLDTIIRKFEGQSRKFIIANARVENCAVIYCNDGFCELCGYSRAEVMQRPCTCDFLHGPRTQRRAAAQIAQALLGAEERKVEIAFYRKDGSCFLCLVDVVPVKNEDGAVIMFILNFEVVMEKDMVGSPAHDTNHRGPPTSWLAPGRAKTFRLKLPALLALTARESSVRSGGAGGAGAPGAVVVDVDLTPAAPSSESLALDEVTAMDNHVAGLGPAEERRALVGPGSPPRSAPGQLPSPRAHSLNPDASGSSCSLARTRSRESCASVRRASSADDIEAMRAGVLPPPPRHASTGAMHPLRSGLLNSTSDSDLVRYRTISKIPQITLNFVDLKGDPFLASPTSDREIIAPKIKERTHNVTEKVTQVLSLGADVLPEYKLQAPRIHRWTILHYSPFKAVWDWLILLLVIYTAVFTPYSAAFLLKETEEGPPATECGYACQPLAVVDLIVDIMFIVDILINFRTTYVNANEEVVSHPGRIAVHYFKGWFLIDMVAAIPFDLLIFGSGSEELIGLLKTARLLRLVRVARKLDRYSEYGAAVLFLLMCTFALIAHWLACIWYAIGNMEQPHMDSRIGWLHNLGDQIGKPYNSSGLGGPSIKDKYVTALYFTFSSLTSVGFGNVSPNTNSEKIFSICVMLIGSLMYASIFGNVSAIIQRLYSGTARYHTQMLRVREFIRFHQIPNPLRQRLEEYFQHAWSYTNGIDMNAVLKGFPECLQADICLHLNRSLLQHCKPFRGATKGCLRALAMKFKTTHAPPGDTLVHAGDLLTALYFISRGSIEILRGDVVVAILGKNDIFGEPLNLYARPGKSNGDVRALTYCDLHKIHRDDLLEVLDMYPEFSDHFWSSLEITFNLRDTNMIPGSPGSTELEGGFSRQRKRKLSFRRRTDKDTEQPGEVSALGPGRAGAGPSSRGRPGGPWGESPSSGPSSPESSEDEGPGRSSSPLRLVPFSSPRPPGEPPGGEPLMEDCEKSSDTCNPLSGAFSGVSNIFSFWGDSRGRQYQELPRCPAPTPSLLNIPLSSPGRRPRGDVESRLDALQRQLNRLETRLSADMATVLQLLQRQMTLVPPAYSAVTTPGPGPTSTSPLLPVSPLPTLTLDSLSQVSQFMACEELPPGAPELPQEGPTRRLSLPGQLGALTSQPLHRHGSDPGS
Procedure: The compounds were tested for inhibition of the human ether a go-go related gene (hERG) K+ channel using QPatch HTX automated electrophysiology.
Compounds of Formula I were solubilised to 100 mM in DMSO before dilution in HBPS to 300 μM.
Electrophysiological recordings were made from a Chinese Hamster Ovary cell line stably expressing the full-length hERG potassium channel. Single cell ionic currents were measured in whole-cell patch clamp configuration at room temperature (21-23° C.) using the QPatch HTX platform (Sophion). Intracellular solution contained (mM): 120 KF, 20 KCl, 10 EGTA, 10 HEPES and was buffered to pH 7.3. […] Cells were clamped at a holding potential of −80 mV. Cells were stepped to +20 mV for 2 s then −40 mV for 3 s before returning to the holding potential. This sweep was repeated 10 times at 10 s intervals. hERG currents were measured from the tail step and referenced to the holding current. Compounds were then incubated for 2 minutes prior to a second measurement of ion channel current using an identical pulse train.

E. coli DNA gyrase = E. coli DNA gyrase (Escherichia coli, UniProt P0AES4+P0AES6); assay: biochemical; details: gel based supercoiling assay; read-out: E. coli DNA Gyrase IC50
Chain of E. coli DNA gyrase (P0AES4 whole entry, one chain of several): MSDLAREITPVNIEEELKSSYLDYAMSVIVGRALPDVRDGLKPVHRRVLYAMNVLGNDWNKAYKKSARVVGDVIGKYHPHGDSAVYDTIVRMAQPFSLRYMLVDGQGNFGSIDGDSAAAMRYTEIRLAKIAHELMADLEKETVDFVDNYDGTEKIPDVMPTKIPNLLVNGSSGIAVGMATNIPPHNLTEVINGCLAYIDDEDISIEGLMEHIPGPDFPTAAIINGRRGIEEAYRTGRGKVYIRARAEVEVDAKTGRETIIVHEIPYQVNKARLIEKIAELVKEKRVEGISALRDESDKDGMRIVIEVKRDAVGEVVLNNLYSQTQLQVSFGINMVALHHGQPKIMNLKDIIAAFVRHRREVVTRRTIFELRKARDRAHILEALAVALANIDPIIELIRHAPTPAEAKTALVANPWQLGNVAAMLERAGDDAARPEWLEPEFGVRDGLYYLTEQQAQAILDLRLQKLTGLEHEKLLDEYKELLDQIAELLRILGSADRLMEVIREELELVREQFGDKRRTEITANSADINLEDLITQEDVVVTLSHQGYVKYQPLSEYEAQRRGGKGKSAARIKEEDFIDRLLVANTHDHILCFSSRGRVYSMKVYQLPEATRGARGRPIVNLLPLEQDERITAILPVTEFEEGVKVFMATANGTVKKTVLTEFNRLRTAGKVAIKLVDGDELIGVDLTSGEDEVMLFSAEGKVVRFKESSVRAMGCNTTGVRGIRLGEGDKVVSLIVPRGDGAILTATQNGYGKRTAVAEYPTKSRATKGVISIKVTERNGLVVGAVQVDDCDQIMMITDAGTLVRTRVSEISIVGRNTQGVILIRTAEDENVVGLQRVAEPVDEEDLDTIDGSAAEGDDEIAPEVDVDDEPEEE

S. aureus ATCC 29213 = assay: MIC studies in LB Media; type: cell-based; details: Staphylococcus aureus, ATCC29213, MIC = 90% inhibition of growth, read-out: Minimum Inhibitory Concentration in LB Media, S. au
Procedure: (§1) Bacterial cultures that were stored as glycerol stocks at −80° C. were sub cultured on LB agar plates to obtain isolated colonies. A single colony of each strain was cultured in LB broth. The cultures were incubated at 37° C., 200 rpm till they reach an optical density (OD at 600 nm) of 0.8 to 1. […] Test compounds were dissolved in dimethyl sulfoxide (DMSO) to a stock concentration of 4 mg/ml. A two-fold dilution series of this DMSO stock was prepared in a 96 well V bottom microtitre plate from rows A to H. A 3 μL volume of these dilutions were transferred to a 96-well flat bottom microtitre assay plate. Controls to monitor the effects of DMSO and media sterility were included. Each well was inoculated with 150 μL of the above diluted culture. The plates were incubated at 37° C. overnight in a humidified incubator. The following morning, the plates were read using a Spectrophotometer at 600 nm wavelength.

[1] = tested on: Proteus mirabilis ATCC 43071; assay: MIC studies in LB Media; type: cell-based; details: ATCC43071, read-out: Minimum Inhibitory Concentration in LB Media, P. mi
Procedure: as §1

E. coli ATCC 25922 = assay: MIC studies in LB Media; type: cell-based; details: Escherichia coli, ATCC25922, read-out: Minimum Inhibitory Concentration in LB Media, E. co
Procedure: as §1

[2] = tested on: Morganella morganii ATCC 25830; assay: MIC studies in LB Media; type: cell-based; details: ATCC25830, read-out: Minimum Inhibitory Concentration in LB Media, M. mo
Procedure: as §1

[3] = tested on: Citrobacter freundii ATCC 43864; assay: MIC studies in LB Media; type: cell-based; details: ATCC43864, read-out: Minimum Inhibitory Concentration in LB Media, C. fr
Procedure: as §1

P. aurigenosa ATCC 27853 = assay: MIC studies in LB Media; type: cell-based; details: Pseudomonas aeruginosa, ATCC27853, read-out: Minimum Inhibitory Concentration in LB Media, P. ae
Procedure: as §1

K. pneumoniae ATCC 13883 = assay: MIC studies in LB Media; type: cell-based; details: Klebsiella pneumoniae, ATCC13883, read-out: Minimum Inhibitory Concentration in LB Media, K. pn
Procedure: as §1

E. faecalis ATCC 29212 = assay: MIC studies in LB Media; type: cell-based; details: Enterococcus faecalis, ATCC29212, read-out: Minimum Inhibitory Concentration in LB Media, E. fa
Procedure: as §1

A. baumannii ATCC 19606 = assay: MIC studies in LB Media; type: cell-based; details: Acinetobacter baumannii, ATCC19606, read-out: Minimum Inhibitory Concentration in LB Media, A. ba
Procedure: as §1

[4] = tested on: Enterobacter cloacae ATCC 13047; assay: MIC studies in LB Media; type: cell-based; details: ATCC13047, read-out: Minimum Inhibitory Concentration in LB Media, E. cl
Procedure: as §1

E. coli topoisomerase IV = E. coli topoisomerase IV (Escherichia coli, UniProt P0AFI2+P20083); assay: biochemical; details: gel based decatenation assay; read-out: E. coli Topo IV IC50
Chain of E. coli topoisomerase IV (P20083 whole entry): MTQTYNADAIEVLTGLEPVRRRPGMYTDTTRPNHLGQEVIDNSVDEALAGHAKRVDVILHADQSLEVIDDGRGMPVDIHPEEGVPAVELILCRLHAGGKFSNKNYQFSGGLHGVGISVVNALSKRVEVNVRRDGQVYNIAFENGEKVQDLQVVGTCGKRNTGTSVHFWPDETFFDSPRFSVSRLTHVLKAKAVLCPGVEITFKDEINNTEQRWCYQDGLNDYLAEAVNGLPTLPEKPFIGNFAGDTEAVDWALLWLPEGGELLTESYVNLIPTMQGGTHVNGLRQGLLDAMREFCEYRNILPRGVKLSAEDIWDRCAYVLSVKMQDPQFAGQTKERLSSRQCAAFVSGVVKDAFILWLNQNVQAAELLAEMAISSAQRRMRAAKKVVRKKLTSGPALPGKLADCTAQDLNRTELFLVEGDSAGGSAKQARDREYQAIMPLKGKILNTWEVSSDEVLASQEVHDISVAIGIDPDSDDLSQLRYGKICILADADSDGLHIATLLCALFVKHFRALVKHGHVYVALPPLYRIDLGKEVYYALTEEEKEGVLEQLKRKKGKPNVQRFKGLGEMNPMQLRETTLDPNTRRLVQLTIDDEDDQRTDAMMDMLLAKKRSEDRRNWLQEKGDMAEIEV
Chain of E. coli topoisomerase IV (P0AFI2 whole entry): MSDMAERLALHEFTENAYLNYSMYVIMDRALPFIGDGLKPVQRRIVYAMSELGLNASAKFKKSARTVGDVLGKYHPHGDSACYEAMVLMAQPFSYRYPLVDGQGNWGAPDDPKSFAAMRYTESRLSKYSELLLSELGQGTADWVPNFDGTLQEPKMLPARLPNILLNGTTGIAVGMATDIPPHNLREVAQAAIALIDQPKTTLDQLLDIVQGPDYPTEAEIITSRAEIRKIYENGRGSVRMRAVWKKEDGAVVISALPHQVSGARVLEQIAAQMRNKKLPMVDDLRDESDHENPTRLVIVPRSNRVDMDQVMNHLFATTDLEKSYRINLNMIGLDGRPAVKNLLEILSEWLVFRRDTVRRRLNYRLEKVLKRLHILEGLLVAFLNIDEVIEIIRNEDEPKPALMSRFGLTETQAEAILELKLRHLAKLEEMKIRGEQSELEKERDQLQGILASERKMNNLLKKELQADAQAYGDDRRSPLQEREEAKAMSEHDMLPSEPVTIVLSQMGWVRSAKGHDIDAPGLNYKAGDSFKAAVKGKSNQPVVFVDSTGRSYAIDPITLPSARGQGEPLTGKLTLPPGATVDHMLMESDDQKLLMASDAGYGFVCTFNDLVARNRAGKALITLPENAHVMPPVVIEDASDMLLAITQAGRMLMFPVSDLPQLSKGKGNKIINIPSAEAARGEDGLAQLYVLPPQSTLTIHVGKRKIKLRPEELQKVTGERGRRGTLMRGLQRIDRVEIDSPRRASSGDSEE

[5] = tested on: K. pneumoniae [ATCC13883]; assay: Neutropenic Thigh Infection Model in Rat, K. pneumoniae; type: in vivo; details: 10 mg/kg, i.v. bolus
E. coli [ATCC25922] = assay: Neutropenic Thigh Infection Model in Rat, E. coli; type: in vivo; details: 10 mg/kg, i.v. bolus
[6] = individual animals, 10 hr post infection

Compound | IC50 (hERG potassium channel) [µM] | IC50 (E. coli DNA gyrase) [µM] | MIC (S. aureus ATCC 29213) [µg/mL] | MIC [1] [µg/mL] | MIC (E. coli ATCC 25922) [µg/mL] | MIC [2] [µg/mL] | MIC [3] [µg/mL] | MIC (P. aurigenosa ATCC 27853) [µg/mL] | MIC (K. pneumoniae ATCC 13883) [µg/mL] | MIC (E. faecalis ATCC 29212) [µg/mL] | MIC (A. baumannii ATCC 19606) [µg/mL] | MIC [4] [µg/mL] | IC50 (E. coli topoisomerase IV) [µM] | MEAN ± SD (Log10 CFU/g thigh) [5] [Log10 CFU/g thigh] | Mean Log 10 CFU/thigh reduction (wrt 2 h PI control: 5.04 Log10CFU/g thigh) [5] [Log 10 CFU/thigh] | Log10 CFU/g thigh [5, 6] | Mean Log 10 CFU/thigh reduction (wrt 2 h PI control: 5.04 Log10CFU/g thigh) (E. coli [ATCC25922]) [Log 10 CFU/thigh] | MEAN ± SD (Log10 CFU/g thigh) (E. coli [ATCC25922]; 10 hr post infection) | Log10 CFU/g thigh (E. coli [ATCC25922]; [6])
Cn1c(=O)ccc2ccc(F)c(OCCNC[C@@H]3CN(c4cnc5c(n4)NC(=O)CO5)C(=O)O3)c21 [Compound 3, (R)-6-(5-(((2-((7-fluoro-1-methyl-2-oxo-1,2-dihydroquinolin-8-yl)oxy)ethyl)amino)methyl)-2-oxooxazolidin-3-yl)-2H-pyrazino[2,3-b][1,4]oxazin-3(4H)-one] | 25 | 0.011 | 0.015 (≈ 0.031 µM) | 0.125 (≈ 0.258 µM) | 0.06 (≈ 0.124 µM) | 0.03 (≈ 0.0619 µM) | 0.06 (≈ 0.124 µM) | 0.5 (≈ 1.03 µM) | 0.06 (≈ 0.124 µM) | 0.06 (≈ 0.124 µM) | 0.06 (≈ 0.124 µM) | 0.125 (≈ 0.258 µM) | – | – | – | – | – | – | –
Cc1nc2ccc(F)c(OCCNC[C@H]3CN(c4cnc5c(n4)NC(=O)CO5)C(=O)O3)c2n(C)c1=O [Compound 9, (S)-6-(5-(((2-((6-fluoro-2,4-dimethyl-3-oxo-3,4-dihydroquinoxalin-5-yl)oxy)ethyl)amino)methyl)-2-oxooxazolidin-3-yl)-2H-pyrazino[2,3-b][1,4]oxazin-3(4H)-one] | – | 0.04 | ≤ 0.06 | 2 (≈ 4 µM) | 0.125 (≈ 0.25 µM) | 0.5 (≈ 1 µM) | 0.25 (≈ 0.501 µM) | 4 (≈ 8.01 µM) | 0.5 (≈ 1 µM) | 0.25 (≈ 0.501 µM) | 0.125 (≈ 0.25 µM) | 1 (≈ 2 µM) | – | – | – | – | – | – | –
Cn1c(=O)cnc2ccc(F)c(OCCNC[C@@H]3CN(c4cnc5c(n4)NC(=O)CO5)C(=O)O3)c21 [Compound 8, (R)-6-(5-(((2-((6-fluoro-4-methyl-3-oxo-3,4-dihydroquinoxalin-5-yl)oxy)ethyl)amino)methyl)-2-oxooxazolidin-3-yl)-2H-pyrazino[2,3-b][1,4]oxazin-3(4H)-one] | 58 | – | ≤ 0.015 | 0.25 (≈ 0.515 µM) | 0.03 (≈ 0.0618 µM) | 0.03 (≈ 0.0618 µM) | 0.06 (≈ 0.124 µM) | 0.5 (≈ 1.03 µM) | 0.06 (≈ 0.124 µM) | 0.06 (≈ 0.124 µM) | 0.06 (≈ 0.124 µM) | 0.125 (≈ 0.258 µM) | – | – | – | – | – | – | –
Cc1cc(=O)n(C)c2c(OCCNC[C@H]3CN(c4cnc5c(n4)NC(=O)CO5)C(=O)O3)c(F)ccc12 [Compound 5, (S)-6-(5-(((2-((7-fluoro-1,4-dimethyl-2-oxo-1,2-dihydroquinolin-8-yl)oxy)ethyl)amino)methyl)-2-oxooxazolidin-3-yl)-2H-pyrazino[2,3-b][1,4]oxazin-3(4H)-one] | 71 | 0.033 | 0.125 (≈ 0.251 µM) | – | 0.06 (≈ 0.12 µM) | – | – | 1 (≈ 2.01 µM) | 0.25 (≈ 0.502 µM) | 0.125 (≈ 0.251 µM) | 0.25 (≈ 0.502 µM) | – | < 0.187 | – | – | – | – | – | –
Cn1c(=O)ccc2ncc(Cl)c(OCCNC[C@H]3CN(c4cnc5c(n4)NC(=O)CO5)C(=O)O3)c21 [Compound 6, (S)-6-(5-(((2-((3-chloro-5-methyl-6-oxo-5,6-dihydro-1,5-naphthyridin-4-yl)oxy)ethyl)amino)methyl)-2-oxooxazolidin-3-yl)-2H-pyrazino[2,3-b][1,4]oxazin-3(4H)-one] | – | 6.33 | > 4 | > 4 | > 4 | > 4 | > 4 | > 4 | > 4 | > 4 | > 4 | > 4 | 17.7 | – | – | – | – | – | –
O=C(O)c1cn(C2CC2)c2cc(N3CCNCC3)c(F)cc2c1=O [Ciprofloxacin, ciprofloxacin, reference compound] | – | – | – | – | – | – | – | – | – | – | – | – | – | 3.30 ± 0.11 | 1.74 | 3.22 Log10 CFU/g thigh and 3.25 Log10 CFU/g thigh and 3.42 Log10 CFU/g thigh | 2.12 | 3.73 ± 0.21 | 3.74 Log10 CFU/g thigh and 3.94 Log10 CFU/g thigh and 3.52 Log10 CFU/g thigh

Reference: patent US11401277B2, “Anti-bacterial heterocyclic compounds and their synthesis” (Bugworks Research, Inc., priority 2017, dated 2022)
